In patent publication US10759865B2, “Treatment of diabetes mellitus” (priority 2017, dated 2020):
Where a name gives a salt, the structure may show the parent alone.

System: patient diagnosed with IDDM
Experiment: treatment of a IDDM patient, blood IDDM markers over time
Format: in vivo, human
Set-up: Insulin Auto Ab (<0.4) / IA2 Ab (Islet cell Ab Screen) (<0.8) / Glucose / Insulin (2-19.6) / HgbA1C / GAD-65 (<5): unit not given here
Procedure: A patient diagnosed with IDDM was treated with 8 units of exogenous long-acting insulin per day (administered in the evening) and 1 unit of short-acting insulin per 6 grams of carbohydrate food intake (administered before each meal).
Specific stimulation high-carb diet was introduced occasionally to monitor the patient's pancreatic ability to respond to the glycemic demands.
Each IVIG dose was administered in one continuous infusion session. From week 16 to week 42, the patient was also treated with alpha one antitrypsin.
Throughout the patient's treatment, the patient's blood was drawn at the time points indicated in Tables 1-2 below, and analyzed by established testing laboratories with respect to standard IDDM blood parameters (see Tables 1-2, top row of each table listing the markers assayed; the numerical values in parenthesis after some of the markers indicate normal reference levels).
The patient was dosed at 750 mg intravenously on weeks 87, 88, 89 and 90.
Tables 1 and 2 describe the same treatment but include data points with respect to different markers tested.

[1] = week 19, 8 mg BID, also alpha one antitrypsin
[2] = week 22, 8 mg BID, also alpha one antitrypsin
[3] = week 25, 8 mg BID, also alpha one antitrypsin
[4] = week 26, 16 mg BID, also alpha one antitrypsin
[5] = week 29, 16 mg BID, also alpha one antitrypsin
[6] = week 30, 16 mg BID, also alpha one antitrypsin
[7] = week 36, 16 mg BID, also alpha one antitrypsin
[8] = week 47, 16 mg BID, IVIG 2, 1, 1 mg/Kg in week 44
[9] = week 50, 16 mg BID, IVIG weeks 44, 47.5
[10] = week 53, 16 mg BID, IVIG weeks 44, 47.5, 50.5
[11] = week 57, 16 mg BID, IVIG weeks 44-54
[12] = week 61, 16 mg BID, IVIG weeks 44-54
[13] = week 66, 16 mg BID, IVIG weeks 44-54
[14] = week 70, 16 mg BID, IVIG weeks 44-54
[15] = week 75, 16 mg BID, IVIG weeks 44-54
[16] = week 79, 5 mg QAM & 10 mg QHS, IVIG weeks 44-54
[17] = week 82.5, 10 mg BID, IVIG weeks 44-54
[18] = week 87.5, 10 mg BID, IVIG 2, 1, 1 gm/Kg week 86, Rituxan 750 mg iv week 87
[19] = week 91.25, 10 mg BID, IVIG weeks 86, 89, Rituxan 750 mg iv weeks 87-90
[20] = week 92.25, 10 mg BID, IVIG weeks 86, 89, Rituxan 750 mg iv weeks 87-90
[21] = week 99.25, 10 mg BID, IVIG weeks 86, 89, Rituxan 750 mg iv weeks 87-90

## C[C@@H]1CCN(C(=O)CC#N)C[C@@H]1N(C)c1ncnc2[nH]ccc12 [tofacitinib citrate, (3R,4R)-4-methyl-3-(methyl-7H-pyrrolo[2,3-d]pyrimidin-4-ylamino)-β-oxo-1-piperidinepropanenitrile, 2-hydroxy-1,2,3-propanetricarboxylate (1:1)]
Week 4, 8 mg BID
  C-Peptide (0.8-3.85): 2.66
  IA2 Ab (Islet cell Ab Screen) (<0.8): 43.8
  Insulin (2-19.6): 17.1
  Insulin Auto Ab (<0.4): 7.2
Week 9, 8 mg BID
  C-Peptide (0.8-3.85): 1.5
  HgbA1C: 7.2
  Insulin (2-19.6): 7.8
Week 10, 8 mg BID
  C-Peptide (0.8-3.85): 4.7
  IA2 Ab (Islet cell Ab Screen) (<0.8): >50
  Insulin (2-19.6): 34.5
  Insulin Auto Ab (<0.4): 64
Week 13, 8 mg BID
  C-Peptide (0.8-3.85): 1.43
  Glucose: 104
  IA2 Ab (Islet cell Ab Screen) (<0.8): 46.2
  Insulin Auto Ab (<0.4): 6.1
  Islet Cell Ab Titers: 320
[1]
  C-Peptide (0.8-3.85): 1.79
  GAD-65 (<5): <5
  Glucose: 126
  HgbA1C: 6.1
  IA2 Ab (Islet cell Ab Screen) (<0.8): 37.7
  Insulin (2-19.6): 12
  Insulin Auto Ab (<0.4): 6.6
  Islet Cell Ab Titers: 80
[2]
  Glucose: 210
  HgbA1C: 6.1
  Insulin (2-19.6): 24.8
  Insulin Auto Ab (<0.4): 4
  Islet Cell Ab Titers: negative
[3]
  Insulin Auto Ab (<0.4): 5.3
  Islet Cell Ab Titers: 20
[4]
  C-Peptide (0.8-3.85): 2.19
  GAD-65 (<5): <5
  Glucose: 93
  IA2 Ab (Islet cell Ab Screen) (<0.8): 47.3
  Insulin (2-19.6): 12
  Insulin Auto Ab (<0.4): 5
  Islet Cell Ab Titers: negative
[5]
  C-Peptide (0.8-3.85): 1.34
  Glucose: 85
  HgbA1C: 6.2
  IA2 Ab (Islet cell Ab Screen) (<0.8): 47.7
  Insulin (2-19.6): 5.4
  Insulin Auto Ab (<0.4): 4.6
  Islet Cell Ab Titers: 20
[6]
  C-Peptide (0.8-3.85): 2.74
  GAD-65 (<5): <5
  Glucose: 143
  HgbA1C: 6.3
  IA2 Ab (Islet cell Ab Screen) (<0.8): 43.8
  Insulin (2-19.6): 34.3
  Insulin Auto Ab (<0.4): 4.2
[7]
  C-Peptide (0.8-3.85): 3.17
  IA2 Ab (Islet cell Ab Screen) (<0.8): 46.5
  Insulin (2-19.6): 31.1
  Insulin Auto Ab (<0.4): 2.4
  Islet Cell Ab Titers: 20
[8]
  HgbA1C: 6.9
  IA2 Ab (Islet cell Ab Screen) (<0.8): 17
  Insulin Auto Ab (<0.4): 2.1
  Islet Cell Ab Titers: negative
[9]
  C-Peptide (0.8-3.85): 2.73
  HgbA1C: 6.5
  IA2 Ab (Islet cell Ab Screen) (<0.8): 35.7
  Insulin (2-19.6): 25
  Insulin Auto Ab (<0.4): 0.9
  Islet Cell Ab Titers: negative
[10]
  C-Peptide (0.8-3.85): 2.14
  GAD-65 (<5): 66
  Glucose: 97
  HgbA1C: 6.5
  IA2 Ab (Islet cell Ab Screen) (<0.8): 30
  Insulin (2-19.6): 14.8
  Insulin Auto Ab (<0.4): 0.8
  Islet Cell Ab Titers: negative
[11]
  C-Peptide (0.8-3.85): 5.21
  GAD-65 (<5): 70
  Glucose: 168
  HgbA1C: 6.8
  IA2 Ab (Islet cell Ab Screen) (<0.8): 25.9
  Insulin (2-19.6): 47.3
  Insulin Auto Ab (<0.4): 1
  Islet Cell Ab Titers: negative
[12]
  C-Peptide (0.8-3.85): 4.3
  GAD-65 (<5): 15
  Glucose: 160
  HgbA1C: 6.2
  IA2 Ab (Islet cell Ab Screen) (<0.8): 39.4
  Insulin (2-19.6): 37.2
  Insulin Auto Ab (<0.4): 0.9
  Islet Cell Ab Titers: negative
[13]
  C-Peptide (0.8-3.85): 1.38
  GAD-65 (<5): 7
  HgbA1C: 6.5
  IA2 Ab (Islet cell Ab Screen) (<0.8): 38.8
  Insulin (2-19.6): 7.7
  Insulin Auto Ab (<0.4): 0.9
  Islet Cell Ab Titers: negative
[14]
  C-Peptide (0.8-3.85): 1.22
  GAD-65 (<5): <5
  Glucose: 112
  HgbA1C: 6.3
  IA2 Ab (Islet cell Ab Screen) (<0.8): 39.4
  Insulin (2-19.6): 6.4
  Insulin Auto Ab (<0.4): 1.7
  Islet Cell Ab Titers: negative
[15]
  C-Peptide (0.8-3.85): 1.33
  GAD-65 (<5): <5
  Glucose: 113
  HgbA1C: 6.2
  IA2 Ab (Islet cell Ab Screen) (<0.8): 39.2
  Insulin (2-19.6): 6.6
  Insulin Auto Ab (<0.4): 0.7
  Islet Cell Ab Titers: negative
[16]
  C-Peptide (0.8-3.85): 1.61
  GAD-65 (<5): <5
  Glucose: 85
  HgbA1C: 6.4
  IA2 Ab (Islet cell Ab Screen) (<0.8): 44.5
  Insulin (2-19.6): 5.6
  Insulin Auto Ab (<0.4): 0.5
  Islet Cell Ab Titers: negative
[17]
  C-Peptide (0.8-3.85): 2.81
  GAD-65 (<5): <5
  Glucose: 230
  HgbA1C: 6.9
  IA2 Ab (Islet cell Ab Screen) (<0.8): 46
  Insulin (2-19.6): 24.1
  Insulin Auto Ab (<0.4): 0.5
  Islet Cell Ab Titers: negative
[18]
  C-Peptide (0.8-3.85): 1.68
  GAD-65 (<5): 105
  Glucose: 278
  HgbA1C: 8.1
  IA2 Ab (Islet cell Ab Screen) (<0.8): 6.5
  Insulin (2-19.6): 6.1
  Insulin Auto Ab (<0.4): <0.4
  Islet Cell Ab Titers: negative
[19]
  C-Peptide (0.8-3.85): 2.88
  GAD-65 (<5): 131
  Glucose: 148
  HgbA1C: 7.8
  IA2 Ab (Islet cell Ab Screen) (<0.8): 13.1
  Insulin (2-19.6): 47.8
  Insulin Auto Ab (<0.4): <0.4
  Islet Cell Ab Titers: negative
[20]
  C-Peptide (0.8-3.85): 2.36
  GAD-65 (<5): 48
  Glucose: 148
  HgbA1C: 7.1
  IA2 Ab (Islet cell Ab Screen) (<0.8): 25.6
  Insulin (2-19.6): 33.7
  Insulin Auto Ab (<0.4): 0.5
  Islet Cell Ab Titers: negative
[21]
  C-Peptide (0.8-3.85): 1.41
  GAD-65 (<5): 24
  Glucose: 170
  HgbA1C: 6.9
  IA2 Ab (Islet cell Ab Screen) (<0.8): 26.5
  Insulin (2-19.6): 14.3
  Insulin Auto Ab (<0.4): 0.7
  Islet Cell Ab Titers: 20
